Data: patent US9745583B2, “Liposome for topical administration and application thereof” (DELTA-FLY PHARMA, INC., priority 2013, dated 2017)

Tests used:
TS gene = TS gene expression in collected tumor cells, quantitative RT-PCR (Example 9); format: in vivo, human; settings: tumor cells collected 21 days after implantation; compared with control; GAPDH internal standard
Method: Mice of the groups subjected to the treatment in the same manner as in Example 8 were subjected to evaluation via IVIS 21 days after the implantation of the MSTO-211H-Luc cells, mice were sacrificed, tumor cells were collected from the thoracic cavity, and the inhibition of TS gene expression in the collected tumor cells was evaluated via quantitative RT-PCR.
RNA was extracted from tumor cells using the RNaqueous-micro kit (Ambion, Austin, Tex., U.S.A.) in accordance with the method recommended by the manufacturer. Reverse transcription of RNA into cDNA was carried out with the addition of Oligo (dT)20, dNTP, RNase inhibitor, and ReverTra Ace (Toyobo, Osaka, Japan) to RNA. Real-time PCR was carried out using the StepOnePlus real-time PCR system (Applied Biosystems, CA, U.S.A.), the reversely-transcribed cDNA as the template, and FastStart TaqMan Probe Master (ROX) and Universal ProbeLibrary (Roche Diagnostics GmbH, Manheim, Germany) as reagents, in accordance with the method recommended by the manufacturer. GAPDH was used as the internal standard.

MSTO-211H-Luc cells [1] = test: Tumor growth inhibition by intrathoracic TS-lipoplex and TS-preplex in orthotopic models (Example 11); format: in vivo, mouse; settings: IVIS 18 days after implantation; 20 μg shRNA intrathoracic x5; PMX 25 mg/kg i.p. x10
Method: Orthotopic implantation models of malignant pleural mesothelioma using the MSTO-211H-Luc cells were prepared by the method described in Example 4, and the mice 4 days after implantation were subjected to the in vivo experiment.
The TS-lipoplex or TS-preplex was administered directly into the thoracic cavity 4, 7, 10, 13, and 16 days after the tumor implantation, so that 20 μg (50 μl) of shRNA would be administered.
When an existing chemotherapeutic agent (Alimta; pemetrexed sodium hydrate (PMX), Eli Lilly) was used in combination, a dose of 25 mg/kg was intraperitoneally administered every day from 4 days to 8 days after the tumor implantation, the same amount of the agent was intraperitoneally administered after an interval of 2 days every day from 11 days to 15 days after the tumor implantation, and administration was carried out 10 times in total.
Two days after the final administration of the TS-lipoplex or TS-preplex (i.e., 18 days after the tumor implantation), 100 μl of a D-luciferin potassium salt solution (7.5 mg/ml) was administered intraperitoneally under anesthesia with isoflurane, and the bioluminescence levels depending on luciferase activity in the MSTO-211H-Luc cells that had grown in the thoracic cavity were evaluated using IVIS (Xenogen, Alameda, Calif., U.S.A.).

MSTO-211H-Luc cells [2] = test: Tumor growth inhibition by intrathoracic TS-shRNA lipoplex in orthotopic mouse models of malignant pleural mesothelioma (Example 8); format: in vivo; settings: compared with control; IVIS 21 days after implantation; lipoplex 20 μg shRNA intrathoracic x6; PMX 25 mg/kg i.p. x10
Method: Orthotopic implantation mouse models of malignant pleural mesothelioma using the MSTO-211H-Luc cells were prepared by the method described in Example 3, and mice in which implanted cells had been sufficiently fixed 7 days after implantation were subjected to in vivo experiment.
The TS-shRNA lipoplex or NS-shRNA lipoplex was directly administered into the thoracic cavity of a mouse carrying MSTO-211H-Luc cells every other day from 7 days to 17 days after the tumor implantation, and administration was carried out 6 times in total. A dose was 20 μg of shRNA/100 μl. […]
As described in Example 5, carcinostatic activity (i.e., cell growth inhibitory activity) was evaluated by implanting MSTO-211H-Luc cells, administering 100 μl of a D-luciferin potassium salt solution (7.5 mg/ml) intraperitoneally under anesthesia with isoflurane 21 days after implantation, and evaluating the bioluminescence levels depending on activity of the MSTO-211H-Luc cells that had grown in the thoracic cavity using IVIS (Xenogen, Alameda, Calif., U.S.A.).

[3] = system: human malignant pleural mesothelioma cells (MSTO-211H); test: MTT assay, cell growth after shRNA transfection with or without PMX; format: cell-based; settings: shRNA 5 or 10 nM with Lf RNAi MAX; in the presence of PMX 0.01 μg/ml; 0-96 hours
Method: This experiment was carried out on a 96-well plate scale. Transfection was carried out using Lipofectamine® RNAi MAX (hereafter referred to as “Lf RNAi MAX”), which is a cationic liposome, in accordance with the manufacturer's instructions.
shRNA (300 pmol of TS-shRNA or NS-shRNA) and 15 μl of Lf RNAi MAX were separately diluted with OptiMEM to prepare solutions (500 n1 each), the resulting solutions were mixed with each other, and the mixture was allowed to stand at room temperature for 10 to 20 minutes to form a complex (i.e., a lipoplex). A suspension of human malignant pleural mesothelioma cells (MSTO-211H) (2,000 cells/100 n1) was added to wells, 50 μl of lipoplex was added thereto 24 hours thereafter, and the final total volume was adjusted to 150 μl (the final shRNA concentration in the wells was adjusted to 5 nM or 10 nM). The medium was removed 24 hours after the initiation of transfection, and 200 μl of a fresh medium containing or not containing an existing cancer chemotherapeutic agent (“Alimta,” pemetrexed sodium hydrate, PMX, Eli Lilly) at 0.01 μg/ml was added thereto. The medium was removed 0, 24, 48, 72, and 96 hours after the addition of the fresh medium. […]
After the completion of incubation, acidic isopropanol (150 μl) was added to each well. […] Absorbance was determined at a wavelength of 570 nm using a plate reader. […]

Row | Molecule | TS gene inhibitory effects (TS mRNA) (TS gene) | tumor growth inhibitory effects (MSTO-211H-Luc cells [1]) | tumor growth inhibitory effects (MSTO-211H-Luc cells [2]) | growth of MSTO-211H cells (cell growth rate, MTT) [3]
1 | Nc1nc2[nH]cc(CCc3ccc(C(=O)N[C@@H](CCC(=O)O)C(=O)O)cc3)c2c(=O)[nH]1 [PMX, pemetrexed sodium hydrate] | about 25% | insignificant | about 50% | –
2 | TS-shRNA: TS-targeting shRNA, SEQ ID NO: 8 (GUAACACCAUCGAUCAUGAUAGUGCUCCUGGUUGUCAUGAUCGAUGGUGUUACUU; siRNA; shRNA hairpin, further chemistry not given here) | – | – | – | inhibited the growth of MSTO-211H cells to a significant extent
